Test results: PubChem BioAssay AID248 (DTP/NCI, 2004)
Inconclusive results and toxic doses are left out.

System: L1210 leukemia ip in BDF1 mice, survival T/C
Assay: NCI In Vivo Anticancer Drug Screen. Data for tumor model L1210 Leukemia (intraperitoneal) in B6D2F1 (BDF1) mice
Conditions: endpoint: mean survival time, higher = longer survival
How it was run: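 Survival endpoint. Drug-treated group vs vehicle group, expressed as T divided by C. Tumor passaged by transplantation.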

[1] = dose: 100.0 mg/kg/injection, schedule: Q04DX003 (ip), vehicle: Klucel (hydroxypropylcellulose) (HPC)
[2] = dose: 200.0 mg/kg/injection, schedule: Q04DX003 (ip), vehicle: Klucel (hydroxypropylcellulose) (HPC)
[3] = dose: 400.0 mg/kg/injection, schedule: Q04DX003 (ip), vehicle: Klucel (hydroxypropylcellulose) (HPC)
[4] = dose: 50.0 mg/kg/injection, schedule: Q04DX003 (ip), vehicle: saline with Tween-80
[5] = dose: 100.0 mg/kg/injection, schedule: Q04DX003 (ip), vehicle: saline with Tween-80
[6] = dose: 100.0 mg/kg/injection, schedule: Q01DX001 (ip), vehicle: saline
[7] = dose: 200.0 mg/kg/injection, schedule: Q01DX001 (ip), vehicle: saline
[8] = dose: 400.0 mg/kg/injection, schedule: Q01DX001 (ip), vehicle: saline
[9] = dose: 100.0 mg/kg/injection, schedule: Q01DX001 (ip), vehicle: carboxymethylcellulose (CMC)
[10] = dose: 200.0 mg/kg/injection, schedule: Q01DX001 (ip), vehicle: carboxymethylcellulose (CMC)
[11] = dose: 400.0 mg/kg/injection, schedule: Q01DX001 (ip), vehicle: carboxymethylcellulose (CMC)
[12] = dose: 100.0 mg/kg/injection, schedule: Q01DX009 (ip), vehicle: saline with Tween-80
[13] = dose: 200.0 mg/kg/injection, schedule: Q01DX009 (ip), vehicle: saline with Tween-80
[14] = dose: 200.0 mg/kg/injection, schedule: Q04DX003 (ip), vehicle: saline with Tween-80
[15] = dose: 100.0 mg/kg/injection, schedule: Q01DX009 (ip), vehicle: Klucel (hydroxypropylcellulose) (HPC)
[16] = dose: 200.0 mg/kg/injection, schedule: Q01DX009 (ip), vehicle: Klucel (hydroxypropylcellulose) (HPC)
[17] = dose: 400.0 mg/kg/injection, schedule: Q01DX009 (ip), vehicle: Klucel (hydroxypropylcellulose) (HPC)
[18] = dose: 100.0 mg/kg/injection, schedule: Q01DX009 (ip), vehicle: gum acacia
[19] = dose: 400.0 mg/kg/injection, schedule: Q01DX009 (ip), vehicle: saline with Tween-80

Nc1nc(N)nc(-c2ccccc2N=NN2CCCCC2)n1
T/C [1]: 101 % of control
T/C [2]: 94 % of control
T/C [3]: 95 % of control

[Cl][Sn]([CH]1CCCCC1)([CH]1CCCCC1)[CH]1CCCCC1
T/C (dose: 12.5 mg/kg/injection, schedule: Q04DX002 (ip), vehicle: gum acacia): 101 % of control
T/C (dose: 25.0 mg/kg/injection, schedule: Q04DX002 (ip), vehicle: gum acacia): 101 % of control

N#CSc1nc2ccccc2s1
T/C (dose: 6.0 mg/kg/injection, schedule: Q01DX001 (ip), vehicle: saline): 88 % of control
T/C (dose: 12.0 mg/kg/injection, schedule: Q01DX001 (ip), vehicle: saline): 89 % of control
T/C (dose: 25.0 mg/kg/injection, schedule: Q01DX001 (ip), vehicle: saline): 98 % of control
T/C (dose: 25.0 mg/kg/injection, schedule: Q04DX003 (ip), vehicle: saline with Tween-80): 92 % of control
T/C [4]: 91 % of control
T/C [5]: 96 % of control

COB(OC)OC
T/C (dose: 50.0 mg/kg/injection, schedule: Q01DX001 (ip), vehicle: saline): 98 % of control
T/C [6]: 95 % of control
T/C [7]: 101 % of control
T/C [8]: 95 % of control

C=CC(=O)Nc1cccc(OC(=O)NC)c1
T/C (dose: 100.0 mg/kg/injection, schedule: Q01DX001 (ip), vehicle: saline with Tween-80): 99 % of control
T/C (dose: 200.0 mg/kg/injection, schedule: Q01DX001 (ip), vehicle: saline with Tween-80): 100 % of control
T/C (dose: 400.0 mg/kg/injection, schedule: Q01DX001 (ip), vehicle: saline with Tween-80): 92 % of control

CCOc1cc(F)cc([N+](=O)[O-])c1
T/C [9]: 97 % of control
T/C [10]: 108 % of control
T/C [11]: 89 % of control

Cc1ccc(S(=O)(=O)Nc2ccc(Nc3ccccc3)cc2)cc1
T/C (dose: 50.0 mg/kg/injection, schedule: Q01DX009 (ip), vehicle: saline with Tween-80): 94 % of control
T/C [12]: 94 % of control
T/C [13]: 102 % of control

CC(=O)CC1CCC(CC(C)=O)CC1 (stereo not drawn)
T/C (dose: 100.0 mg/kg/injection, schedule: Q04DX002 (ip), vehicle: other): 98 % of control
T/C (dose: 200.0 mg/kg/injection, schedule: Q04DX002 (ip), vehicle: other): 90 % of control
T/C (dose: 400.0 mg/kg/injection, schedule: Q04DX002 (ip), vehicle: other): 98 % of control

NC(=O)CN1C(=O)C2C3CCC(C3)C2C1=O (stereo not drawn)
T/C [5]: 107 % of control
T/C [14]: 107 % of control
T/C (dose: 400.0 mg/kg/injection, schedule: Q04DX003 (ip), vehicle: saline with Tween-80): 107 % of control

CCOc1ccc(NC(=O)Nc2cccc(C(F)(F)F)c2)cc1
T/C [15]: 91 % of control
T/C [16]: 96 % of control
T/C [17]: 93 % of control

CN(C)c1ccc(CC2CCOC2=O)cc1 (stereo not drawn)
T/C (dose: 50.0 mg/kg/injection, schedule: Q01DX001 (ip), vehicle: carboxymethylcellulose (CMC)): 102 % of control
T/C [9]: 96 % of control
T/C [10]: 96 % of control
T/C [11]: 100 % of control

O=CN/N=C/c1ccc([N+](=O)[O-])cc1
T/C (dose: 75.0 mg/kg/injection, schedule: Q01DX001 (ip), vehicle: saline): 92 % of control
T/C (dose: 150.0 mg/kg/injection, schedule: Q01DX001 (ip), vehicle: saline): 87 % of control
T/C (dose: 300.0 mg/kg/injection, schedule: Q01DX001 (ip), vehicle: saline): 89 % of control

Cc1cc2oc(/C=N/NC(N)=S)c(C)c2cc1C
T/C [15]: 100 % of control
T/C [16]: 99 % of control
T/C [17]: 105 % of control

OC(CC(O)(C(F)(F)F)C(F)(F)F)c1cccc(Cl)c1 (stereo not drawn)
T/C (dose: 50.0 mg/kg/injection, schedule: Q01DX009 (ip), vehicle: gum acacia): 96 % of control
T/C [18]: 94 % of control
T/C (dose: 100.0 mg/kg/injection, schedule: Q04DX003 (ip), vehicle: gum acacia): 104 % of control
T/C (dose: 200.0 mg/kg/injection, schedule: Q04DX003 (ip), vehicle: gum acacia): 95 % of control

CC1(C)C(=C(C#N)C#N)C(C)(C)C1=C(C#N)C#N
T/C [6]: 114 % of control
T/C [7]: 96 % of control
T/C [8]: 90 % of control

CCN(CC)CCSSCCN(CC)CC.[Cl][Mn][Cl]
T/C [6]: 103 % of control

CCCSCSCCC
T/C [6]: 105 % of control
T/C (dose: 100.0 mg/kg/injection, schedule: Q01DX009 (ip), vehicle: saline): 105 % of control
T/C (dose: 100.0 mg/kg/injection, schedule: Q04DX003 (ip), vehicle: saline): 98 % of control
T/C [7]: 98 % of control
T/C (dose: 200.0 mg/kg/injection, schedule: Q01DX009 (ip), vehicle: saline): 97 % of control
T/C (dose: 200.0 mg/kg/injection, schedule: Q04DX003 (ip), vehicle: saline): 104 % of control
T/C [8]: 98 % of control
T/C (dose: 400.0 mg/kg/injection, schedule: Q01DX009 (ip), vehicle: saline): 100 % of control
T/C (dose: 400.0 mg/kg/injection, schedule: Q04DX003 (ip), vehicle: saline): 97 % of control

O=NN(CCCl)C(=O)Nc1c[nH]c2ccccc12
T/C (dose: 118.0 mg/kg/injection, schedule: Q01DX009 (ip), vehicle: carboxymethylcellulose (CMC)): 116 % of control
T/C (dose: 177.0 mg/kg/injection, schedule: Q01DX009 (ip), vehicle: carboxymethylcellulose (CMC)): 116 % of control
T/C (dose: 266.0 mg/kg/injection, schedule: Q01DX009 (ip), vehicle: carboxymethylcellulose (CMC)): 123 % of control
T/C (dose: 400.0 mg/kg/injection, schedule: Q01DX009 (ip), vehicle: carboxymethylcellulose (CMC)): 124 % of control
T/C (dose: 600.0 mg/kg/injection, schedule: Q01DX009 (ip), vehicle: carboxymethylcellulose (CMC)): 156 % of control

CCCCCCCC(=O)N(C)OC
T/C [15]: 97 % of control
T/C [1]: 89 % of control
T/C [2]: 94 % of control
T/C [17]: 100 % of control
T/C [3]: 92 % of control

O=C(NCCS)c1ccc(C(=O)NCCS)cc1
T/C (dose: 100.0 mg/kg/injection, schedule: Q04DX002 (ip), vehicle: Klucel (hydroxypropylcellulose) (HPC)): 95 % of control
T/C (dose: 200.0 mg/kg/injection, schedule: Q04DX002 (ip), vehicle: Klucel (hydroxypropylcellulose) (HPC)): 103 % of control
T/C (dose: 400.0 mg/kg/injection, schedule: Q04DX002 (ip), vehicle: Klucel (hydroxypropylcellulose) (HPC)): 103 % of control

CCOc1ccc(-n2c(O)c(N=Nc3ccc(Cl)cc3)c(=O)n(-c3ccccc3)c2=S)cc1
T/C (dose: 100.0 mg/kg/injection, schedule: Q01DX001 (ip), vehicle: Klucel (hydroxypropylcellulose) (HPC)): 104 % of control
T/C (dose: 200.0 mg/kg/injection, schedule: Q01DX001 (ip), vehicle: Klucel (hydroxypropylcellulose) (HPC)): 105 % of control
T/C (dose: 400.0 mg/kg/injection, schedule: Q01DX001 (ip), vehicle: Klucel (hydroxypropylcellulose) (HPC)): 94 % of control

COC(=O)c1ccccc1NC(=O)Nc1ccccc1C(F)(F)F
T/C [12]: 89 % of control
T/C [13]: 89 % of control
T/C [19]: 86 % of control

CCC/C=N/Nc1ccnc(SC)n1
T/C [18]: 97 % of control

CSc1nc([N+](C)(C)C)cc([N+](C)(C)C)n1
T/C (dose: 6.0 mg/kg/injection, schedule: Q01DX Z (ip), vehicle: saline): 91 % of control

Cc1ccc(NC(=S)NN)cc1C
T/C (dose: 50.0 mg/kg/injection, schedule: Q01DX009 (ip), vehicle: Klucel (hydroxypropylcellulose) (HPC)): 94 % of control
T/C [15]: 100 % of control
T/C [1]: 94 % of control
T/C [2]: 97 % of control

CCC1CC2c3cc(OC)c(OC)cc3CCN2CC1(O)Cc1ccncc1 (stereo not drawn)
T/C (dose: 100.0 mg/kg/injection, schedule: Q04DX003 (ip), vehicle: carboxymethylcellulose (CMC)): 100 % of control
T/C (dose: 200.0 mg/kg/injection, schedule: Q04DX003 (ip), vehicle: carboxymethylcellulose (CMC)): 104 % of control

CC(=O)Oc1ccc(C=O)cc1
T/C [4]: 96 % of control
T/C [5]: 91 % of control
T/C [14]: 96 % of control

CC(=O)OC(C(=O)N(c1ccccc1)c1ccccc1)c1ccccc1 (stereo not drawn)
T/C [12]: 98 % of control
T/C [13]: 95 % of control
T/C [19]: 93 % of control
